In ChEMBL document CHEMBL4706583, “2-Anilinoquinoline based arylamides as broad spectrum anticancer agents with B-RAF/C-RAF kinase inhibitory effects: Design, synthesis, in vitro cell-based and oncogenic kinase assessments” (Eur J Med Chem, 2020):

How the values were obtained:
[1] = test system: MOLT-4; assay: Growth inhibition of human MOLT-4 cells measured after 48 hrs by SRB assay; assay type: functional
[2] = test system: SR; assay: Growth inhibition of human SR cells measured after 48 hrs by SRB assay; assay type: functional
[3] = test system: HOP-62; assay: Growth inhibition of human HOP-62 cells measured after 48 hrs by SRB assay; assay type: functional
[4] = test system: HOP-92; assay: Growth inhibition of human HOP-92 cells measured after 48 hrs by SRB assay; assay type: functional; details: for CC50: read-out: LC50 (the source's name)
[5] = test system: NCI-H460; assay: Growth inhibition of human NCI-H460 cells measured after 48 hrs by SRB assay; assay type: functional
[6] = test system: COLO 205; assay: Growth inhibition of human COLO 205 cells measured after 48 hrs by SRB assay; assay type: functional
[7] = test system: HCC 2998; assay: Growth inhibition of human HCC 2998 cells measured after 48 hrs by SRB assay; assay type: functional
[8] = test system: HT-29; assay: Growth inhibition of human HT-29 cells measured after 48 hrs by SRB assay; assay type: functional; details: for CC50: read-out: LC50 (the source's name)
[9] = test system: SF-268; assay: Growth inhibition of human SF-268 cells measured after 48 hrs by SRB assay; assay type: functional
[10] = test system: SF-295; assay: Growth inhibition of human SF-295 cells measured after 48 hrs by SRB assay; assay type: functional
[11] = test system: SF-539; assay: Growth inhibition of human SF-539 cells measured after 48 hrs by SRB assay; assay type: functional
[12] = test system: U-251; assay: Growth inhibition of human U-251 cells measured after 48 hrs by SRB assay; assay type: functional
[13] = test system: Malme-3M; assay: Growth inhibition of human Malme-3M cells measured after 48 hrs by SRB assay; assay type: functional
[14] = test system: SK-MEL-5; assay: Growth inhibition of human SK-MEL-5 cells measured after 48 hrs by SRB assay; assay type: functional
[15] = test system: UACC-257; assay: Growth inhibition of human UACC-257 cells measured after 48 hrs by SRB assay; assay type: functional
[16] = test system: UACC-62; assay: Growth inhibition of human UACC-62 cells measured after 48 hrs by SRB assay; assay type: functional
[17] = test system: OVCAR-5; assay: Growth inhibition of human OVCAR-5 cells measured after 48 hrs by SRB assay; assay type: functional
[18] = test system: OVCAR-8; assay: Growth inhibition of human OVCAR-8 cells measured after 48 hrs by SRB assay; assay type: functional
[19] = test system: NCI/ADR-RES; assay: Growth inhibition of human NCI/ADR-RES cells measured after 48 hrs by SRB assay; assay type: functional
[20] = test system: SN12C; assay: Growth inhibition of human SN12C cells measured after 48 hrs by SRB assay; assay type: functional
[21] = test system: TK-10; assay: Growth inhibition of human TK-10 cells measured after 48 hrs by SRB assay; assay type: functional
[22] = test system: PC-3; assay: Growth inhibition of human PC-3 cells measured after 48 hrs by SRB assay; assay type: functional
[23] = test system: MCF7; assay: Growth inhibition of human MCF7 cells measured after 48 hrs by SRB assay; assay type: functional
[24] = test system: MDA-MB-231; assay: Growth inhibition of human MDA-MB-231 cells measured after 48 hrs by SRB assay; assay type: functional
[25] = test system: Hs-578T; assay: Growth inhibition of human Hs-578T cells measured after 48 hrs by SRB assay; assay type: functional
[26] = test system: BT-549; assay: Growth inhibition of human BT-549 cells measured after 48 hrs by SRB assay; assay type: functional
[27] = test system: MDA-MB-468; assay: Growth inhibition of human MDA-MB-468 cells measured after 48 hrs by SRB assay; assay type: functional
[28] = Cytotoxicity against human L132 cells assessed as cell viability at 10 uM measured after 48 hrs by EZ-Cytox assay relative to control; assay type: cell-based; details: read-out: Activity
[29] = test system: HCT-116; assay: Cell cycle arrest in human HCT-116 cells assessed as increase in G0/G1-phase accumulation measured after 24 to 48 hrs by propidium iodide staining based flow cytometry; assay type: functional; details: dose 1.25-5 µM, time 24-48 hrs
[30] = test system: HCT-116; assay: Induction of apoptosis in human HCT-116 cells assessed as late apoptotic cells at 1.25 uM measured after 24 hrs by Annexin-V Alexa Fluor488/propidium iodide staining based flow cytometry (reference value: 1%); assay type: functional
[31] = test system: HCT-116; assay: Induction of apoptosis in human HCT-116 cells assessed as early apoptotic cells at 2.5 uM measured after 24 hrs by Annexin-V Alexa Fluor488/propidium iodide staining based flow cytometry (reference value: 6.3%); assay type: functional
[32] = test system: HCT-116; assay: Induction of apoptosis in human HCT-116 cells assessed as viable cells at 5 uM measured after 24 hrs by Annexin-V Alexa Fluor488/propidium iodide staining based flow cytometry (reference value: 88.1%); assay type: functional; details: read-out: Activity
[33] = test system: HCT-116; assay: Induction of apoptosis in human HCT-116 cells assessed as early apoptotic cells at 5 uM measured after 24 hrs by Annexin-V Alexa Fluor488/propidium iodide staining based flow cytometry (reference value: 6.3%); assay type: functional
[34] = test system: HCT-116; assay: Induction of apoptosis in human HCT-116 cells assessed as late apoptotic cells at 5 uM measured after 24 hrs by Annexin-V Alexa Fluor488/propidium iodide staining based flow cytometry (reference value: 1%); assay type: functional
[35] = test system: HCT-116; assay: Induction of apoptosis in human HCT-116 cells assessed as necrotic cells at 5 uM measured after 24 hrs by Annexin-V Alexa Fluor488/propidium iodide staining based flow cytometry (reference value: 4.6%); assay type: functional
[36] = test system: HCT-116; assay: Induction of apoptosis in human HCT-116 cells assessed as viable cells at 2.5 uM measured after 48 hrs by Annexin-V Alexa Fluor488/propidium iodide staining based flow cytometry (reference value: 82.3%); assay type: functional; details: read-out: Activity
[37] = test system: HCT-116; assay: Induction of apoptosis in human HCT-116 cells assessed as early apoptotic cells at 2.5 uM measured after 48 hrs by Annexin-V Alexa Fluor488/propidium iodide staining based flow cytometry (reference value: 7.7%); assay type: functional
[38] = test system: HCT-116; assay: Induction of apoptosis in human HCT-116 cells assessed as late apoptotic cells at 2.5 uM measured after 48 hrs by Annexin-V Alexa Fluor488/propidium iodide staining based flow cytometry (reference value: 2.2%); assay type: functional
[39] = test system: HCT-116; assay: Induction of apoptosis in human HCT-116 cells assessed as viable cells at 5 uM measured after 48 hrs by Annexin-V Alexa Fluor488/propidium iodide staining based flow cytometry (reference value: 82.3%); assay type: functional; details: read-out: Activity
[40] = test system: HCT-116; assay: Induction of apoptosis in human HCT-116 cells assessed as early apoptotic cells at 5 uM measured after 48 hrs by Annexin-V Alexa Fluor488/propidium iodide staining based flow cytometry (reference value: 7.7%); assay type: functional
[41] = target: RAF proto-oncogene serine/threonine-protein kinase (Homo sapiens, UniProt P04049); assay: Inhibition of human CRAF using MEK1 (K97R) as substrate in presence of [gamma-33P]ATP by scintillation counting method
Chain of RAF proto-oncogene serine/threonine-protein kinase (P04049 whole entry): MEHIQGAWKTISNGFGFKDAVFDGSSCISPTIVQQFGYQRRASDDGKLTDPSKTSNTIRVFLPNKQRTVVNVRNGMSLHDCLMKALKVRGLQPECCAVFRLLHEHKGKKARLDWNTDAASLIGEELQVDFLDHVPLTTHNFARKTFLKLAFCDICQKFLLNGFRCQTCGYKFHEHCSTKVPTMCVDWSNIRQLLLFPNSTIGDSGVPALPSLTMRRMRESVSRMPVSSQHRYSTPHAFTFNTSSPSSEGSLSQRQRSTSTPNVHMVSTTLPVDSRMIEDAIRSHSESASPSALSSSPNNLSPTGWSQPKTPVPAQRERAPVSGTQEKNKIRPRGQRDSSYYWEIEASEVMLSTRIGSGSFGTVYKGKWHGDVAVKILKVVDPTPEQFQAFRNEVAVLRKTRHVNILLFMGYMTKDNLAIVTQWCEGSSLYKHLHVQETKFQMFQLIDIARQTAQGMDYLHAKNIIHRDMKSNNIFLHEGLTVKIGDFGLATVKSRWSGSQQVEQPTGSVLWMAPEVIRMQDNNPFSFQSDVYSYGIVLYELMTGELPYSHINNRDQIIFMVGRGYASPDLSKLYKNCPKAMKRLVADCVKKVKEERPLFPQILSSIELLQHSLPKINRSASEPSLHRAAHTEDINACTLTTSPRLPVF

[42] = target: Serine/threonine-protein kinase B-raf (Homo sapiens, UniProt P15056, V600E); assay: Inhibition of human BRAF V600E mutant using MEK1 (K97R) as substrate in presence of [gamma-33P]ATP by scintillation counting method
Chain of Serine/threonine-protein kinase B-raf (P15056 2-766 V600E limits assumed): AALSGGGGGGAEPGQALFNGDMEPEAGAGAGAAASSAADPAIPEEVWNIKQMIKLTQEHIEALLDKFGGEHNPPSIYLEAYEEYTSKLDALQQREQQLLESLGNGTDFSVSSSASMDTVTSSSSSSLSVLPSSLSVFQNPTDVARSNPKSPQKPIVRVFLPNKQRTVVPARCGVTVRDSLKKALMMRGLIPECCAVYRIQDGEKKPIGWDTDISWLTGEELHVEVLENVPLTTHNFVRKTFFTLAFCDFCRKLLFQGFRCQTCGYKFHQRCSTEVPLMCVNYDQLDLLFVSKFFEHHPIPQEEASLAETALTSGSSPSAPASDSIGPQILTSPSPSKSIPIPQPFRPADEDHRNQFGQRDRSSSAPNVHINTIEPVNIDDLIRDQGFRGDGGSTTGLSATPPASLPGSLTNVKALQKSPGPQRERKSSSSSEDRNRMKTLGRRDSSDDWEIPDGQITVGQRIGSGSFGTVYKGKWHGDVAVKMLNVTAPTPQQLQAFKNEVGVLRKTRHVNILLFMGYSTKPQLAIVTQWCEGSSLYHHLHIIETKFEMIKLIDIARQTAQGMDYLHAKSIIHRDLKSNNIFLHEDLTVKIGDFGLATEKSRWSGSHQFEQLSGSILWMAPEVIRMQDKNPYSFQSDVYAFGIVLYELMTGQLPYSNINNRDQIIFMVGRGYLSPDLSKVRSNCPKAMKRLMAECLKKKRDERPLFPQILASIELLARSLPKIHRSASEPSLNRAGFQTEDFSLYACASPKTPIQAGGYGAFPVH

Compound: CCN1CCN(c2cc(C(=O)Nc3cccc(Nc4ccc5c(OC)cccc5n4)c3)cc(C(F)(F)F)c2)CC1
- GI50 [1]: 616 nM
- GI50 [2]: 883 nM
- GI50 [3]: 1020 nM
- GI50 [4]: 1260 nM
- TGI [4]: 4660 nM
- CC50 [4]: 16600 nM
- GI50 [5]: 1340 nM
- GI50 [6]: 654 nM
- GI50 [7]: 720 nM
- GI50 [8]: 572 nM
- TGI [8]: 1210 nM
- CC50 [8]: 2560 nM
- GI50 [9]: 1760 nM
- GI50 [10]: 803 nM
- LC50 [10]: 11400 nM
- TGI [10]: 2250 nM
- GI50 [11]: 3280 nM
- GI50 [12]: 1360 nM
- GI50 [13]: 611 nM
- LC50 (concentration killing 50% of cells) [13]: 2880 nM
- TGI [13]: 1330 nM
- GI50 [14]: 1550 nM
- GI50 [15]: 1020 nM
- GI50 [16]: 1500 nM
- GI50 [17]: 2780 nM
- GI50 [18]: 1970 nM
- GI50 [19]: 1290 nM
- GI50 [20]: 1390 nM
- GI50 [21]: 3470 nM
- GI50 [22]: 805 nM
- GI50 [23]: 679 nM
- LC50 [23]: 17600 nM
- TGI [23]: 2280 nM
- GI50 [24]: 1800 nM
- GI50 [25]: 3610 nM
- GI50 [26]: 3780 nM
- GI50 [27]: 749 nM
- LC50 [27]: 14600 nM
- TGI [27]: 4050 nM
- viability at 48 h, 10 µM [28]: 68.2%
- Activity [29]: Dose-dependent effect
- Activity [30]: 0.6%
- Activity [31]: 15.6%
- viability at 5 µM [32]: 79.2%
- Activity [33]: 19.3%
- Activity [34]: 0.8%
- Activity [35]: 0.6%
- viability at 2.5 µM [36]: 78.8%
- Activity [37]: 19%
- Activity [38]: 1%
- viability at 5 µM [39]: 72%
- Activity [40]: 26.8%
- IC50 [41]: 229 nM
- IC50 [42]: 888 nM

Compound: COc1cccc2nc(Nc3cccc(NC(=O)c4ccc(N5CCN(C)CC5)c(C(F)(F)F)c4)c3)ccc12
- GI50 [1]: 876 nM
- GI50 [2]: 1130 nM
- GI50 [3]: 856 nM
- GI50 [4]: 854 nM
- TGI [4]: 4030 nM
- CC50 [4]: 18800 nM
- GI50 [5]: 964 nM
- GI50 [6]: 909 nM
- GI50 [7]: 950 nM
- GI50 [8]: 712 nM
- TGI [8]: 1610 nM
- CC50 [8]: 3650 nM
- GI50 [9]: 1500 nM
- GI50 [10]: 967 nM
- LC50 [10]: 3820 nM
- TGI [10]: 1920 nM
- GI50 [11]: 895 nM
- GI50 [12]: 885 nM
- GI50 [13]: 816 nM
- LC50 (concentration killing 50% of cells) [13]: 3200 nM
- TGI [13]: 1620 nM
- GI50 [14]: 1520 nM
- GI50 [15]: 1360 nM
- GI50 [16]: 1060 nM
- GI50 [17]: 1530 nM
- GI50 [18]: 1690 nM
- GI50 [19]: 1500 nM
- GI50 [20]: 1700 nM
- GI50 [21]: 2010 nM
- GI50 [22]: 1260 nM
- GI50 [23]: 851 nM
- LC50 [23]: 4250 nM
- TGI [23]: 1900 nM
- GI50 [24]: 1550 nM
- GI50 [25]: 1070 nM
- GI50 [26]: 2790 nM
- GI50 [27]: 1110 nM
- LC50 [27]: 18400 nM
- TGI [27]: 3650 nM
- viability at 48 h, 10 µM [28]: 66.1%
- Activity [29]: Dose-dependent effect
- Activity [30]: 1.7%
- Activity [31]: 6.1%
- viability at 5 µM [32]: 85.1%
- Activity [33]: 7.9%
- Activity [34]: 2.2%
- Activity [35]: 4.8%
- viability at 2.5 µM [36]: 79.5%
- Activity [37]: 14.3%
- Activity [38]: 2%
- viability at 5 µM [39]: 61.5%
- Activity [40]: 29.6%
- IC50 [41]: 370 nM
- IC50 [42]: 1460 nM
